From patent US20090170131A1, “Agents for Imaging Apoptosis” (priority 2006, published 2009)

How the values were obtained:
caspase-3 = target: T1, caspase-3 (Homo sapiens, UniProt P42574); test: AMC-M808 cleavage in DLD1 colon carcinoma cells after TRAIL treatment, time-lapse confocal fluorescence; type: cell-based
T1 construct: In DLD1 colon carcinoma cells in vitro; endogenous in cells; host or cells: DLD1 colon carcinoma cells
T1 sequence (P42574 29-175 limits assumed): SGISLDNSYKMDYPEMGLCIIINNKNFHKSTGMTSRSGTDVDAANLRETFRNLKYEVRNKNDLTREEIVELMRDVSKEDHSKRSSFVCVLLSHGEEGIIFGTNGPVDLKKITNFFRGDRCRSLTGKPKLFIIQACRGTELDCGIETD
T1 sequence (P42574 176-277 limits assumed): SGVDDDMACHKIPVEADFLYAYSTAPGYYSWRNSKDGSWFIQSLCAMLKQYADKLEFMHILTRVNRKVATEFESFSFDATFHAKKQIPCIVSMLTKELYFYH
Experimental: FIG. 1 is an image of AMC fluorescence from an imaging agent in DLD1 colon carcinoma cells before (A) and after 2 hour treatment with TNF-related apoptosis-inducing ligand (TRAIL) (B).
DLD1 cells were seeded in an 8-chamber glass slide at a density of 2×10^4 cells/cm^2 in DMEM containing 10% FBS and allowed to attach overnight. Fluorescent images of the plated cells were acquired using an Olympus FV1000 confocal microscope equipped with an onstage incubation chamber. TRAIL was added to the cells in a 0.5 mL volume of fresh medium at a concentration of 50 ng/mL. Time-lapse microscopy was then immediately initiated with confocal images acquired at a rate of one image every 10 minutes. The cells were maintained at 37° C. in 5% CO2 for the duration of the experiment. An excitation wavelength of 405 nm and an emission wavelength range of 425 to 475 nm were used to detect the cleaved product of AMC-M808. Fluorescence intensity over time was measured in a representative region-of-interest in each 10-minute image acquired to determine the rate of caspase activity.

caspases = settings: cell cultures containing 23% apoptotic cells; cited from earlier work

Compound | cleavage by caspase-3 after induction of apoptosis (caspase-3; DLD1 cells treated with TRAIL) | rate of increase in fluorescence intensity due to AMC-M808 cleavage (caspase-3; DLD1 cells, after TRAIL 50 ng/mL, first hour, region of interest in 10 minute frames) | cell permeability (caspase-3; DLD1 colon carcinoma cells in vitro) | uptake in cell cultures (caspases)
COc1ccccc1CC(=O)NC(C(=O)NC(CC(=O)OCc1ccccc1)C(=O)Nc1ccc2c(C)cc(=O)oc2c1)C(C)C (stereo not shown) [Compound 3] | cleaved by caspase-3 | 5.5 min⁻¹ | cell permeable | 
radioiodinated Z-Val-Ala-DL-Asp(O-methyl)-fluoromethyl ketone [[^131I]IZ-VAD-fmk] |  |  |  | some increase in uptake
